The structures appear in SMILES notation.

The inhibition is the change of the read-out against control, counted positive when it falls.

This assay has as its target T1, KIT T670I (Homo sapiens, UniProt P10721, T670I).
T1 construct: purchased Thermo Fisher Scientific (Life Technologies) SelectScreen
The assay is described as follows: SelectScreen Z'LYTE. Type of assay: biochemical. The procedure, abridged: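 Percent values come from Thermo SelectScreen profiling of NU5455, combining activity and binding assays. CSF1R was run in Z'LYTE format at Km app ATP, and CAMK1 in Adapta format with ATP listed at 10.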

T1 sequence (P10721 26-976 T670I): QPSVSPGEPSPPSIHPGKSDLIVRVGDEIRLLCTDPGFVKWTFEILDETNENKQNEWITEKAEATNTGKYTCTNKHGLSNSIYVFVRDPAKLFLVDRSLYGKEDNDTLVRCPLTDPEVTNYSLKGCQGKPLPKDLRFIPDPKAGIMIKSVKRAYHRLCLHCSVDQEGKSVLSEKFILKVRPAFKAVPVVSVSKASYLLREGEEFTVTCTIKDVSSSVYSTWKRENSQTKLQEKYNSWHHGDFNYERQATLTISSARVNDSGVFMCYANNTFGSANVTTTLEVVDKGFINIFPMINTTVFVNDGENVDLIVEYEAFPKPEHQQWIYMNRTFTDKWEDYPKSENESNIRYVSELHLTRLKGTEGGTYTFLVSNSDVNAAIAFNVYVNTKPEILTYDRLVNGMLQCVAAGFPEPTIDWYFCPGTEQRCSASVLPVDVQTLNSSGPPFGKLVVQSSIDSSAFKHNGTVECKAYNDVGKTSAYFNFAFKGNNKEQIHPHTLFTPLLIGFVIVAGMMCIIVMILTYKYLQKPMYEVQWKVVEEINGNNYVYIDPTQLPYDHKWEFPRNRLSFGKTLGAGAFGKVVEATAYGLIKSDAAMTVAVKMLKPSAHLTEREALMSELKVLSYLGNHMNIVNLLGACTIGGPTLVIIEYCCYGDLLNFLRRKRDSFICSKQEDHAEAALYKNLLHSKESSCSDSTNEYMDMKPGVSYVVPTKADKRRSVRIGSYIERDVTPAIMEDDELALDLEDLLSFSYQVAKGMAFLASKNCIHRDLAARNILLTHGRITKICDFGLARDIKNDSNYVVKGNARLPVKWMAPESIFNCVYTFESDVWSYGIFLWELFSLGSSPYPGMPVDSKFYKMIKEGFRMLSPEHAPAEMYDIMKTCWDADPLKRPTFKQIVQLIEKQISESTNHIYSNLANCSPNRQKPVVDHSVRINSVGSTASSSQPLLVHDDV

On to `CN(C(=O)CN1CCOCC1)c1ccc2sc3c(-c4cccc5c(=O)cc(N6CC7CCC(C6)O7)oc45)cccc3c2c1` [NU5455], for which the inhibition at 1 µM was -24.4%.

The values above are taken from paper PMC6934184, “Selective DNA-PKcs inhibition extends the therapeutic index of localized radiotherapy and chemotherapy” (The Journal of Clinical Investigation, 2019).
